Experimental findings from patent publication US20090311321A1, “ORAL DISINTEGRATING TABLET HAVING MASKED BITTER TASTE AND METHOD FOR PRODUCTION THEREOF” (KISSEI PHARMACEUTICAL CO., LTD., priority 2006, published 2009) are described below.

Molecules are shown by their SMILES.

This series in a line: Solubility of mitiglinide calcium hydrate (water, pH dependence). In kind it is physicochemical. The text has this:
The inventors of the present invention conducted studies on orally disintegrating tablets containing mitiglinide calcium hydrate. […] Because the orally disintegrating tablets are designed to quickly disintegrate in the mouth, the influence of bitterness becomes a big factor when the active ingredient has a bitter taste. […] Under these circumstances, the inventors of the present invention conducted studies to provide a mitiglinide calcium hydrate-containing orally disintegrating tablet having reduced bitterness and capable of rapidly dissolving in the digestive tract.
As mentioned above, the mitiglinide calcium hydrate-containing preparation is administered immediately before meal, and preferably, rapidly dissolves upon administration to improve postprandial hyperglycemia. It is therefore desirable in an orally disintegrating tablet of the present invention that the tablet rapidly dissolves in the digestive tract, particularly in the stomach, after having disintegrated in the mouth. […] It is therefore preferable that an orally disintegrating tablet of the present invention rapidly dissolve in the stomach and water.

For `O=C(O)[C@H](CC(=O)N1C[C@H]2CCCC[C@H]2C1)Cc1ccccc1` [mitiglinide calcium hydrate, (+)-Monocalcium bis[(2S,3a,7a-cis)-α-benzylhexahydro-γ-oxo-2-isoindolinebutyrate]dihydrate], where the note is “alkaline versus neutral to acidic pH”, the pH-dependent solubility entry is “soluble in an alkaline pH range, and insoluble toward the neutral to acidic pH”. Further, the Solubility in water entry (water) is listed as “does not easily dissolve in water”.
